# Source: US20030203356A1, “RNase L activator-antisense complexes” (priority 2002, published 2003)
# Where two headings read alike, the source gives them in different places. Oligonucleotides are written 5' to 3', each unit as a sugar letter and its base; * is a phosphorothioate linkage, no mark a phosphodiester; rarer units and linkages stand in square brackets, end groups in braces. Plain capitals give the bases only. {spA4} = thiophosphorylated 2',5'-linked tetraadenylate (2-5A), RNase L activator; {spA3} = thiophosphorylated 2',5'-linked triadenylate (2-5A), RNase L activator; {S9} = spacer 9 linker, triethylene glycol phosphate; {BU2} = two butanediol phosphate linkers; m = 2'-O-methyl
# Test system: RSV
# Assay: anti-RSV activity in infected HEp-2 cells (reduction of cytopathic effects, neutral red uptake assay)
# Type: cell-based, Respiratory Syncytial Virus
# Source text: A comparison of the efficacies of RBI245 treatment and conventional ribarvirin treatment can be obtained by determining the RSV-inhibitory concentration and the cytotoxic concentration of each compound. Cultures of the human laryngeal carcinoma cell line HEp-were established and infected with an MOI=0.02. Treatment with either ribavirin or RBI245 was begun one hour post-infection. The effects of treatment on RSV infection were reported as an EC50, the concentration at which there was a 50% reduction in the observable cytopathic effects of infection. The results of the treatment of HEp-2 cells with RBI245, ribavirin, and other activator-antisense complexes are shown in FIG. 1 and summarized in Table 2. […] Therefore, the activity of RBI245 in vitro is more than 1000-fold better than ribavarin, the only approved drug for the treatment of RSV. No toxicity was found for any of the 2-5A oligonucleotide compounds up to the maximum dosage tested (3.2 μM).
# [1] = HEp-2 cells infected with RSV, MOI=0.02, treatment begun one hour post-infection, read-out: EC50 in μM (50% Effective dose based on neutral red uptake assay)
compound,measurement,setting,value
"5′sp-A2′s5′A2′s5′A2′s5′A2′-p(CH2CH2O)3-p-5′(AsAsAsAAUGGGGCAAAsUsAsA)m03′ (antisense {spA4}-{S9}-mA*mA*mA*mAmAmUmGmGmGmGmCmAmAmA*mU*mA*mA; 5' 2-5A activator attached via triethylene glycol linker, further chemistry not given here) [RBI245]",EC50,"HEp-2 cells, MOI=0.02, treatment one hour post-infection, read-out: EC50, concentration at which there was a 50% reduction in the observable cytopathic effects of infection",0.02 µM
same,anti-RSV activity in vitro relative to ribavirin,ratio of in vitro potency versus ribavirin,more than 1000 fold
"NC(=O)c1ncn([C@@H]2O[C@H](CO)[C@@H](O)[C@H]2O)n1 [Ribavirin, reference compound]",EC50,"human respiratory syncytial virus, 1 h, HEp-2 cells infected with RSV, MOI=0.02, treatment begun one hour post-infection, read-out: EC50 in μM (50% Effective dose based on neutral red uptake assay)",60 µM
same,EC50,"human respiratory syncytial virus, 1 h, HEp-2 cells, MOI=0.02, treatment one hour post-infection, read-out: EC50, concentration at which there was a 50% reduction in the observable cytopathic effects of infection",60 µM
"(spA)3-S9-(AsAsAsAAUGGGGCAsAsA)m-3′ ({spA3}-{S9}-mA*mA*mA*mAmAmUmGmGmGmGmCmA*mA*mA; antisense; 5' 2-5A activator attached via linker) [RBI243, shortened version of 245]",EC50,[1],0.3 µM
spA4-BU2-(AsAsAsAAUGGGGCAAAsUsAsA)m3′ ({spA4}-{BU2}-mA*mA*mA*mAmAmUmGmGmGmGmCmAmAmA*mU*mA*mA; antisense; 5' 2-5A activator attached via linker) [RBI034],EC50,[1],0.6 µM
"spA4-BU2-(GsAsTsAGAAATAGAAAsGsCsA)m-3′ (GATAGAAATAGAAAGCA; antisense; all 2'-O-methyl, linkages s3 o10 s3 (s phosphorothioate, o phosphodiester), 5' {spA4}-{BU2}, T or U not given here; 5' 2-5A activator attached via linker) [RBI066, scrambled control, reference compound]",EC50,[1],> 3.2 µM
